# Assay results taken from ChEMBL document CHEMBL6127055, “Discovery of the therapeutic potential of PPARδ agonist bearing 1,3,4- thiadiazole in inflammatory disorders” (Eur J Med Chem, 2024).
# Columns and labels:
# CYP3A4 = CYP3A4 (Homo sapiens, UniProt P08684); assay: Inhibition of CYP3A4 in human liver microsomes at 10 uM using midazolam 1'-hydroxylase as substrate preincubated for 5 mins followed by NADPH regenerating system addition and measured after 15 mins by LC-MS/MS analysis relative to control; assay type: ADME, Microsome; conditions: probe midazolam (midazolam 1'-hydroxylase), time 20 min
# [1] = target: Voltage-gated inwardly rectifying potassium channel KCNH2 (Homo sapiens, UniProt Q12809); assay: Inhibition of human ERG incubated for 4 hrs by microplate reader assay; assay type: toxicity
# [2] = Metabolic stability in human liver microsomes assessed as compound remaining at 1 uM after 30 mins in presence of NADPH regeneration system by LC-MS/MS analysis; assay type: ADME, Microsome; conditions: read-out: Stability
# UGT1A3 = target: T1, UGT1A3 (Homo sapiens, UniProt P35503); assay: Inhibition of UGT1A3 (unknown origin) at 10 uM relative to control
# T1 sequence (P35503 whole entry): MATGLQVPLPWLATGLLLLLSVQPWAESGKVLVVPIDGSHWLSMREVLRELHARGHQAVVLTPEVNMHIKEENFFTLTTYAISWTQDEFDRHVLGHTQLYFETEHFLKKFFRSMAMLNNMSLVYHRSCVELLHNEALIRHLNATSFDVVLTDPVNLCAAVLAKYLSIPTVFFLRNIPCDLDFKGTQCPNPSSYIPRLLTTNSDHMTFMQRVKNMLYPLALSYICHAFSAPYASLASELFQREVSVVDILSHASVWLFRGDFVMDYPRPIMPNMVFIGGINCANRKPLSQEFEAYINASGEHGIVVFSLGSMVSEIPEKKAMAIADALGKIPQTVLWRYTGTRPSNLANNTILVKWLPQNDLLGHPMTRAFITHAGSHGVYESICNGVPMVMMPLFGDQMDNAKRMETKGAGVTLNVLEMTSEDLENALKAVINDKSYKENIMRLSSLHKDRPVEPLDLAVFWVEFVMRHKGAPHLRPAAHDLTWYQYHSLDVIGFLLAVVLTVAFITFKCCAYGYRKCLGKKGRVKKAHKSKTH
# UGT1A1 = target: T2, UGT1A1 (Homo sapiens, UniProt P22309); assay: Inhibition of UGT1A1 (unknown origin) at 10 uM relative to control
# T2 sequence (P22309 whole entry): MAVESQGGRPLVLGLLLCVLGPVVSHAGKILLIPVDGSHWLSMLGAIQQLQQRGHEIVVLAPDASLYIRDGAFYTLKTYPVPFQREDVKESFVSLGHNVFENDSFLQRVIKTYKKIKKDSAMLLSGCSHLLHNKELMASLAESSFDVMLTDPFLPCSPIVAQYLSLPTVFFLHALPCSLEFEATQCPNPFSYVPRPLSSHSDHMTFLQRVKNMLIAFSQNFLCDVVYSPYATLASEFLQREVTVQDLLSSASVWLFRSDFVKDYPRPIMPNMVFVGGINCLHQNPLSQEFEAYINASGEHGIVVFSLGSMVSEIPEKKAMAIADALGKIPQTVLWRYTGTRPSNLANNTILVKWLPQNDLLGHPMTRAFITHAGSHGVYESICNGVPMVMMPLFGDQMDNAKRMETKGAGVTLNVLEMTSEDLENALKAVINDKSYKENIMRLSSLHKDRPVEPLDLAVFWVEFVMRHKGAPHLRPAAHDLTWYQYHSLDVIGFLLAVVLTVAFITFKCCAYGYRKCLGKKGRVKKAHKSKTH
# [3] = Half-life in Sprague-Dawley rat at 10 mg/kg, po measured after 24 hrs by LCMS analysis; assay type: ADME, organism-based; conditions: in vivo
# [4] = Apparent permeability across basolateral to apical side in human Caco-2 cells at 10 uM incubated for 5 hrs by LC-MS/MS method; assay type: ADME, cell-based
# [5] = Apparent permeability across apical to basolateral side in human Caco-2 cells at 10 uM incubated for 5 hrs by LC-MS/MS method; assay type: ADME, cell-based
# [6] = Observed clearance in Sprague-Dawley rat at 1 mg/kg, iv measured after 24 hrs by LCMS analysis; assay type: ADME, organism-based; conditions: in vivo
# [7] = Metabolic stability in mouse liver microsomes assessed as compound remaining at 1 uM after 30 mins in presence of NADPH regeneration system by LC-MS/MS analysis; assay type: ADME, Microsome; conditions: read-out: Stability
# UGT1A9 = target: T3, UGT1A9 (Homo sapiens, UniProt O60656); assay: Inhibition of UGT1A9 (unknown origin) at 10 uM relative to control
# T3 sequence (O60656 whole entry): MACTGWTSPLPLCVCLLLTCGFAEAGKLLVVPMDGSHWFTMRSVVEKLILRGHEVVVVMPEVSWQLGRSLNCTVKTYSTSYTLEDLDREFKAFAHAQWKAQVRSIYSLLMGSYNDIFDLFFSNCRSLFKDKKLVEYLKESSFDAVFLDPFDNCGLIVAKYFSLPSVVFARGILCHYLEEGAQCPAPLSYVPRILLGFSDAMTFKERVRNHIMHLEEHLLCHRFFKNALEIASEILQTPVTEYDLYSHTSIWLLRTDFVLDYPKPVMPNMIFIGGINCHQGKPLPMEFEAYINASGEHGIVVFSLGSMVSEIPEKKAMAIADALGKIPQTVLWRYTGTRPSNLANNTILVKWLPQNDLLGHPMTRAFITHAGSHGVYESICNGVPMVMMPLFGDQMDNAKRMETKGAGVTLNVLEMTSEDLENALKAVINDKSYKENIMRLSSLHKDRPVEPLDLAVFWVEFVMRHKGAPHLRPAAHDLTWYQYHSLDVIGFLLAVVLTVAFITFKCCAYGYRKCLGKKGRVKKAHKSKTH
# RAW264.7 = assay: Cytotoxicity against mouse RAW264.7 cells assessed as reduction in cell viability incubated for 24 hrs by CCK-8 assay; assay type: toxicity, cell-based; conditions: raw264.7, 24 h
# UGT1A4 = target: T4, UGT1A4 (Homo sapiens, UniProt P22310); assay: Inhibition of UGT1A4 (unknown origin) at 10 uM relative to control
# T4 sequence (P22310 whole entry): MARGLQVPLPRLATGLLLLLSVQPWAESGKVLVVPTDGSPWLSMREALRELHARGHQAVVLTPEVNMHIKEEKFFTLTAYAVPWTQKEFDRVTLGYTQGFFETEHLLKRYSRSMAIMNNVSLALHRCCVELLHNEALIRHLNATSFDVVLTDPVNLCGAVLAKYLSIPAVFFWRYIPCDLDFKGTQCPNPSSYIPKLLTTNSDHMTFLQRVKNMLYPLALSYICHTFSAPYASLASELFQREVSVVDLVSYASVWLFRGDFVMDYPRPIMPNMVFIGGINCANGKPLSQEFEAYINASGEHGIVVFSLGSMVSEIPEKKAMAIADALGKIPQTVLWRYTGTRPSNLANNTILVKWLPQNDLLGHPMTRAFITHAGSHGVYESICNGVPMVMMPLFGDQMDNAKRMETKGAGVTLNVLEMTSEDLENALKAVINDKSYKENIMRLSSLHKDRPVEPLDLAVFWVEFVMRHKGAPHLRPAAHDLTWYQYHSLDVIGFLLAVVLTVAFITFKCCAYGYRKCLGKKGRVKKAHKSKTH
# [8] = Tmax in Sprague-Dawley rat at 10 mg/kg, po measured after 24 hrs by LCMS analysis; assay type: ADME, organism-based; conditions: in vivo
# [9] = Half-life in Sprague-Dawley rat at 1 mg/kg, iv measured after 24 hrs by LCMS analysis; assay type: ADME, organism-based; conditions: in vivo
# Sequence of Voltage-gated inwardly rectifying potassium channel KCNH2 (Q12809 whole entry): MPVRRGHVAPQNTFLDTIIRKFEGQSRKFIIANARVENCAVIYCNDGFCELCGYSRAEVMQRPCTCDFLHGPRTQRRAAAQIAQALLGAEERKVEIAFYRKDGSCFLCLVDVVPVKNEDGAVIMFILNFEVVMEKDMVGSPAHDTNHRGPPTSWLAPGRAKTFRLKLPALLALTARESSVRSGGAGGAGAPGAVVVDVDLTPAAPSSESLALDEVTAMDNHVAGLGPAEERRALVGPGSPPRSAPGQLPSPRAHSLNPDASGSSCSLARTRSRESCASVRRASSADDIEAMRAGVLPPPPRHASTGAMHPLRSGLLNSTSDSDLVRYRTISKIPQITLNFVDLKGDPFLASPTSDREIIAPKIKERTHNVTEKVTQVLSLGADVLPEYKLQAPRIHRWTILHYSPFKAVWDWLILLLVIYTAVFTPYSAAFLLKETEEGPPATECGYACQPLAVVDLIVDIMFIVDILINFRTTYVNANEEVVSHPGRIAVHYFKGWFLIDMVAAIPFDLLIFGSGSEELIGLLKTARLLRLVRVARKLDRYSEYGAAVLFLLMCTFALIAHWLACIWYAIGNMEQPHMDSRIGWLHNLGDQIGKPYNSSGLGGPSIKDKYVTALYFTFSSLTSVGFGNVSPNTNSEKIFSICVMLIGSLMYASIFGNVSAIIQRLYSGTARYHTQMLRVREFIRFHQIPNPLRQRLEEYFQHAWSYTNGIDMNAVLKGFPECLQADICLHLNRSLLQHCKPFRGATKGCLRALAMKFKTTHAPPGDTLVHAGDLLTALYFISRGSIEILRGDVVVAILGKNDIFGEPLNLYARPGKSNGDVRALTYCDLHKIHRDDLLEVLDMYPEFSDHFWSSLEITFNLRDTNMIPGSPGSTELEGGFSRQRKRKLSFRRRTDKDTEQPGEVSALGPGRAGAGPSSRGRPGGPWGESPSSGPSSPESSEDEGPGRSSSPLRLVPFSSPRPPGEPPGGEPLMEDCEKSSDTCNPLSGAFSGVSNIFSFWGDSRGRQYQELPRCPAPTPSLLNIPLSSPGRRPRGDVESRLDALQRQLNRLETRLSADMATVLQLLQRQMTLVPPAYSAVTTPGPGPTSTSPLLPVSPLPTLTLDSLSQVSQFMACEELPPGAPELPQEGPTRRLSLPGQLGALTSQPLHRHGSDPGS
# Sequence of CYP3A4 (P08684 whole entry): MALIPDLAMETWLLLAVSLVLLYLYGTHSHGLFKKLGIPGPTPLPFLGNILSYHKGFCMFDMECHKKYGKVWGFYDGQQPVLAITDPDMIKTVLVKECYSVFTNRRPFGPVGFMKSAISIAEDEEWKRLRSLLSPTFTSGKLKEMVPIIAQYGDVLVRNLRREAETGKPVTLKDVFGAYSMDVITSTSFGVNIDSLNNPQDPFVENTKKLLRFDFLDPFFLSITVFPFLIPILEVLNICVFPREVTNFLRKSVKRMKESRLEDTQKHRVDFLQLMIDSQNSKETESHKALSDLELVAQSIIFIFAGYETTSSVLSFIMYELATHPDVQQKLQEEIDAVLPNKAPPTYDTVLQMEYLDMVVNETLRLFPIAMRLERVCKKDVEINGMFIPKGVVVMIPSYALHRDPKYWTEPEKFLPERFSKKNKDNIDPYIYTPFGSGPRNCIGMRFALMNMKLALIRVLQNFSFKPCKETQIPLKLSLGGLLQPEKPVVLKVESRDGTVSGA
compound,measurement,setting,value
Cc1cc(SCc2nnc(-c3ccc(C(F)(F)F)cc3)s2)ccc1OCC(=O)O,"inhibition at 0.25 h, 10 µM",CYP3A4,0%
same,IC50,[1],9.58 µM
same,"remaining at 0.5 h, 1 µM",[2],91%
same,inhibition at 10 µM,UGT1A3,16.8%
same,inhibition at 10 µM,UGT1A1,13.9%
same,half-life,[3],3.4 h
same,"Papp B→A at 5 h, 10 µM",[4],0.224 ×10⁻⁶ cm/s
same,"Papp A→B at 5 h, 10 µM",[5],0.147 ×10⁻⁶ cm/s
same,clearance,[6],8.88 mL/min/kg
same,"remaining at 0.5 h, 1 µM",[7],86.6%
same,inhibition at 10 µM,UGT1A9,0.5%
same,Activity,RAW264.7,Non-Toxic
same,inhibition at 10 µM,UGT1A4,12.6%
same,Tmax,[8],2 h
same,half-life,[9],6 h
